Laboratory results reported in patent publication US8138188B2, “Melanocortin type 4 receptor agonist piperidinoylpyrrolidines” (Pfizer Inc., priority 2006, dated 2012).

Legend:
[1] = target: MC4 receptor (Homo sapiens, UniProt P32245); assay: MC4 functional agonist potency (EC50), assay protocol E of US2005/0176772 / WO 2005/077935; assay type: cell-based; conditions: functional potency at the MC4 receptor
Method: The compounds of formula (I) of the present invention have utility as MCR4 agonists in the treatment of various disease states.
MC5 and MC4 EC50 activity was determined as described by assay protocols D and E, respectively, in US2005/0176772 (pages 28-30).

[2] = target: T1, MC4 receptor (MC4R) (Homo sapiens, UniProt P32245); assay: AGRP inhibition: competition binding vs [125I]AGRP(87-132) at CHO-CRE MC4R cell membranes; conditions: vs 0.3 nM [125I]AGRP(87-132)
T1 construct: expressed in transfected cells; host or cells: CHO-CRE MC4R cells (membranes)
T1 sequence (P32245 whole entry): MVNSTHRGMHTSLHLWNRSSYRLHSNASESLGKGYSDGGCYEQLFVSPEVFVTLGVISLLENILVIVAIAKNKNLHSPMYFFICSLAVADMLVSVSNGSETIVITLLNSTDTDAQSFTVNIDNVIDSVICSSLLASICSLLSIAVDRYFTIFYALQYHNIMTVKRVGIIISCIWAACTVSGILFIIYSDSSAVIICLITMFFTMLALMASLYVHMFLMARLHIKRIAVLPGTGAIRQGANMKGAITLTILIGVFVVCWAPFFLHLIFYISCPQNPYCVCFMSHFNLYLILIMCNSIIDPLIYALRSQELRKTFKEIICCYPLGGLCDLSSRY
Text: Agouti related protein (AGRP) is a high affinity endogenous antagonist/inverse agonist for the MC4 receptor (Lu et al., 1994, Nature 371: 799-802; Oilman et al., 1997, Science 278: 135-138). […] It has been ascertained that this C-terminal fragment of AGRP contains the MC4R binding determinants (Yang et al., 1999, Mol Endocrinol 13: 148-155), therefore, compounds can be evaluated for their ability to inhibit AGRP binding to membranes from cells expressing the MC4R using a competition binding assay versus [^125I]AGRP(87-132). To this end cells expressing the MC4R were subject to homogenisation and the membrane fragment isolated by differential centrifugation. CHO-CRE MC4R cell membranes (12 μg protein) were incubated with 0.3 nM [^125I]AGRP(87-132) and 11 half-log concentrations of competitor ligand, in duplicate, in a total volume of 100 μl buffer (25 mM HEPES, 1 mM MgCl2, 2.5 mM CaCl2, 0.5% BSA pH 7.0). Non-specific binding was determined by the inclusion of 1 μM SHU9119. The reaction was initiated by the addition of membranes and plates were incubated at room temperature for 2 hours. The reaction was terminated by rapid filtration onto GF/C filters (presoaked in 1% PEI) using a vacuum harvester followed by five 200 μl washes of ice cold wash buffer (Binding buffer containing 500 mM NaCl). The filters were soaked in 50 μl scintillation fluid and the amount of radioactivity present was determined by liquid scintillation counting. Ki values were determined by data analysis using appropriate software.

[3] = In vitro metabolism rate determination, human liver microsome (HLM) assay; assay type: in vitro ADME; conditions: human liver microsomes, substrate 1 μM; read-out: HLM (intrinsic clearance)
Text: (§1) In vitro Metabolism Rate Determination (Human Liver Microsome (HLM); Rat Liver Microsome (RLM) Assay)
(§2) Many drugs are metabolised by the cytochrome P450 mono-oxygenase system. This enzyme is found in high concentrations in the liver and is bound to the endoplasmic reticulum of the hepatocyte. The enzyme system can be obtained in semi-purified state by the preparation of the hepatic microsomal fractions. Determining a compound's in vitro half-life in such a system provides a useful indicator of metabolic stability.
(§3) Methodology For In Vitro Rate Determination Using Hepatic & Supermix Microsomes
(§4) The method outlined below is for a total incubation volume of 1.5 ml.
(§5) 1. The following mixture is prepared in a test tube:
(§6) 2. Defrost microsomes at room temperature and add sufficient microsomes to give a final concentration of 0.5 nmol cytochrome P450/ml of incubation e.g. for a 1.5 ml incubation, the volume of microsomes to be added is:
(§7) [formula] 3. Add sufficient MilliQ water to give a total incubation volume of 1.425 ml. 4. Remove 237.5 μl of incubation mix and place in test tube for PNA positive control. Add 2.5 μl of PNA solution, whirlimix, and put tube into a rack in the thermostatically controlled shaking water bath 5. Remove 100 μl for no substrate control and dispense in test tube. Place test tube in a rack in the thermostatically controlled shaking water bath. 6. Add substrate to the incubation. The substrate should be at an initial concentration of 1 μM. The volume of substrate required in the remaining 1.162.5 ml incubation is calculated as follows:
(§8) [formula] • N.B. The volume of organic solvent added should not exceed 0.1% of the total incubation volume. 7. Remove 100 μl of incubation mix into test tube for no cofactor control. Whirlimix and put into a rack in the thermostatically controlled shaking water bath. 8. Pre-incubate the tube containing the incubation mix, also positive control and no cofactor tubes in the thermostatically controlled shaking water bath set at 37° C. for approx 5 min. 9. Add NADP to initiate reaction (75 μl to each 1.162.5 ml incubation mix, 12.5 μl to positive control tube and 5 μl to no substrate tube) and take first time point immediately. The PNA positive control, no cofactor control and no substrate tubes are incubated for the total incubation time. 10. Remove 100 μl aliquots up to 9 different sampling points from 0 to 60 min (usually 0, 3, 5, 10, 15, 20, 30, 45 & 60 min) and terminate reaction. Longer incubation times can be used, but, after 120 min the microsomes deteriorate. The reaction may be terminated by addition of organic solvent, acid or base. At the end of the incubation process the no cofactor and no substrate controls in a similar manner i.e. terminate with the same reagent. 11. PNA Positive Control Procedure: • After the final sample has been taken, remove the positive control and add 1 ml 20% TCA to this tube. Also prepare a tube containing 250 μl of a PNP standard at 50 μM, and add 1 ml 20% TCA. Whirlimix both tubes and leave for approx 5 min to allow the protein to precipitate. • Centrifuge both tubes for approx 5 min in an instrument set at 3500 rpm. Remove 1 ml of supernatant and place into clean test tubes, discard the remainder. • Add 1 ml 10M NaOH to the supernatant, whirlimix, and leave to stand for approx min. Blank spectrophotometer with distilled water at 400 nm then measure absorbance of the PNP standard against distilled water. The microsomal 4-nitroanisole O-demethylase activity is calculated as follows: Calculation of Results
(§9) [formula] • The activity value from the incubation MUST be equal to or greater than 85% of the mean value of the batch used for the incubation to be valid. If this criteria is not met, then the incubation must be repeated. 11. Analyse samples (including no cofactor and no substrate control) by a specific assay for the substrate to determine the disappearance kinetics. Analysis Of Data […]

[4] = In vitro metabolism rate determination, rat liver microsome (RLM) assay; assay type: in vitro ADME; conditions: rat liver microsomes, substrate 1 μM; read-out: RLM (intrinsic clearance)
Text: as §1, §2, §3, §4, §5, §6, §7, §8, §9

[5] = target: T2, human MC3 receptor (Homo sapiens, UniProt P41968); assay: In vitro agonist potency (EC50) against melanocortin receptor type 3, cAMP in recombinant cell line; assay type: cell-based; conditions: cell line stably transfected with human MC3, 1 hour at 37° C.
T2 construct: stably transfected with full length cDNA encoding human MC1 or MC3 receptors; expressed in transfected cells; host or cells: Chinese hamster ovary cell line (MC3; 'respectively')
T2 sequence (P41968 whole entry): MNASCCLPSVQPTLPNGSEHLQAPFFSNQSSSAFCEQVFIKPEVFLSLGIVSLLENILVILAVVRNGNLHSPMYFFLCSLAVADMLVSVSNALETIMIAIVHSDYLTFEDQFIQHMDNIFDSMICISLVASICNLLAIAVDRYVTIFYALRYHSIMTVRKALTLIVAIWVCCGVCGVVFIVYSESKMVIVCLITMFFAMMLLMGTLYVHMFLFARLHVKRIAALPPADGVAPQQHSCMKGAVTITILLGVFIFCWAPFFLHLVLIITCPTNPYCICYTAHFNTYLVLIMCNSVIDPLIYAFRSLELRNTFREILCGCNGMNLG
Method: Measurement of In Vitro Agonist Potency (EC50) of Compounds Against Melanocortin Receptors Type 1 and 3 (MC1 and MC3).
Activation of melanocortin (MC) receptors by agonists results in activation of intracellular adenylate cyclase enzymes that synthesise the second messenger signalling molecule, adenosine 3′,5′-cyclic monophosphate (cAMP). Changes in cAMP levels following treatment of recombinant MC1 and MC3 cell lines with test compound were measured and an MC1 and MC3 potency estimate (EC50) calculated as follows: […]
Human embryonic kidney (HEK) or Chinese hamster ovary cell lines stably transfected with full length cDNA encoding human MC1 or MC3 receptors, respectively, were established using standard molecular biology methods. Test compounds were dissolved in dimethyl sulfoxide (DMSO) at 4 mM. 11 point half log unit increment dilution series of test compound, typically starting at 50 uM were prepared in a buffer comprised of phosphate buffered saline (PBS), 2.5% DMSO and 0.05% pluronic F-127 surfactant. Freshly cultured cells at 80-90% confluence were harvested and re-suspended in Dulbecco's Modified Eagle's Medium (DMEM). Cells (10,000 for MC3, 20,000 for MC1) were added to the test compound dilution series in a 384 well assay plate and incubated for 1 hour at 37° C. The relative cAMP concentration in each well was then measured using a β-galactosidase enzyme fragment complementation method purchased in kit form as the Discoverx cAMP II kit from GE Healthcare/Amersham Biosciences UK. In the case of MC1,3-Isobutyl-1-methylxanthine (IBMX) at a concentration of 750 μM was included in DMEM as the cells were re-suspended for assay. […] Sigmoidal curves were fitted to plots of log10 inhibitor concentration vs percent effect using a custom made software application called SIGHTS and EC50 estimates determined by the software as the concentration of test compound giving an effect half way between the bottom and top assymptopes of the sigmoidal dose response curve. Each experiment included an EC50 determination for alpha melanocyte stimulating hormone, which was used as a standard to track assay consistency and allow fair comparison between EC50 estimates obtained in different experiments.

[6] = target: T3, CYP3A4 (Homo sapiens, UniProt P08684); assay: High density drug-drug interactions (DDI) 3 μM cocktail screen in human liver microsomes; assay type: in vitro ADME; conditions: 3 uM test compound, pooled human liver microsomes, probe midazolam 2 μM; read-out: % Inhibition of 3A4 metabolism at 3 uM
T3 construct: utilizes human liver microsomes together with isoform-specific clinical drug probes; from tissue; host or cells: human liver microsomes
T3 sequence (P08684 whole entry, canonical isoform): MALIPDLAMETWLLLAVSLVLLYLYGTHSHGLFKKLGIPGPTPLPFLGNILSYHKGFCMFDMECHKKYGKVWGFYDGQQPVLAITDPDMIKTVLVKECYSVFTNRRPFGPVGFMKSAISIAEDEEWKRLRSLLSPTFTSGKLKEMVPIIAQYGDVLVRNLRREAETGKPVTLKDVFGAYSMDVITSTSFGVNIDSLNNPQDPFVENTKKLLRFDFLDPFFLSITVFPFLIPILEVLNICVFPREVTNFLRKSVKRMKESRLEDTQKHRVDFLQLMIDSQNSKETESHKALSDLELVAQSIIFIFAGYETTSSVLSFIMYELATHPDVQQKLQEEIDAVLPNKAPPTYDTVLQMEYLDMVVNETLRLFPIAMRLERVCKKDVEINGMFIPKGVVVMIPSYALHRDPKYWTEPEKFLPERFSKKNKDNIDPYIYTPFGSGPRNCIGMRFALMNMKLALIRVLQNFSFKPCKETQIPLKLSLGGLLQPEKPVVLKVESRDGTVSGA
Method: High Density Drug-Drug Interactions (DDI) 3 μM Cocktail Screen
A drug interaction is a situation in which a substance affects the activity of another drug, i.e. the effects are increased or decreased, or together they produce a new effect that neither produces on its own. Drug interactions may be the result of various processes but a relatively common one is where one drug affects the pharmacokinetics of another by inhibiting the cytochrome P450 that metabolises it. Because of the importance of these phenomena, assessment of the DDI potential for new chemical entities (NCEs) is considered important early on in the drug discovery process.
The DDI cocktail screen in human liver microsomes (HLM) is run in a fully automated fashion and the aim of the screen is to provide a single-point assessment of the DDI potential of new chemical entity (NCE; tested at 3 μM) against the 4 primary cytochrome P450 enzymes, 1A2, 2D6, 2C9 and 3A4.
The substrate cocktail approach for P450 DDI utilizes human liver microsomes together with isoform-specific clinical drug probes and permits the simultaneous measurement of the inhibition of P450 1A2, 2C9, 2D6 & 3A4 activities in a single incubation. This is run in high throughput with simultaneous detection of metabolites by LC-MS/MS. This method has been thoroughly tested and evaluated using standard compounds.
Appearance of the metabolite of each substrate is measured over time in the presence and absence of the NCE (test compound/inhibitor) at a concentration of 3 μM. The compounds are assessed for their inhibitory potential as a percentage value and interpreted using the following scheme.

Chain of MC4 receptor (P32245 whole entry): as the sequence (P32245 whole entry) above

SMILES	EC50 [1] [µM]	Ki [2] [µM]	microsomal CLint at 1 μM [3] [µL/min/mg]	microsomal CLint at 1 μM [4] [µL/min/mg]	EC50 [5] [µM]	inhibition at 3 μM [6] [%]
COc1ccc([C@@H]2CN(c3cccnn3)C[C@H]2C(=O)N2C[C@@H](C)[C@](O)(c3ccc(F)cc3)[C@@H](C)C2)cn1 [Example 11]	0.111	0.417	14			
COc1ccc(C2CN(c3cccnn3)CC2C(=O)N2CC(C)C(O)(c3ccccc3)C(C)C2)cn1 (stereo not shown) [Example 12]	0.0916		> 352	88.5		
COc1ccc([C@@H]2CN(c3cncc(F)c3)C[C@H]2C(=O)N2C[C@@H](C)[C@](O)(c3ccc(F)cc3)[C@@H](C)C2)cn1 [Example 13]	0.0376	0.106			1.02	6
COc1ccc([C@@H]2CN(c3ccc(C#N)cn3)C[C@H]2C(=O)N2C[C@@H](C)[C@](O)(c3ccc(F)cc3)[C@@H](C)C2)cn1 [Example 14]	0.115		< 9	< 9.75	0.129	
COc1ccc(C2CN(c3cncc(C#N)c3)CC2C(=O)N2CC(C)C(O)(c3ccc(F)cc3)C(C)C2)cn1 (stereo not shown) [Example 15]	0.0539				> 33.4	
C[C@@H]1CN(C(=O)[C@@H]2CN(c3ccc(C#N)nn3)C[C@H]2c2ccc(Cl)cn2)C[C@H](C)[C@@]1(O)c1ccccc1 [Example 29]	0.00754	0.04	105	36		59
C[C@@H]1CN(C(=O)[C@@H]2CN(c3ccc(C#N)nn3)C[C@H]2c2ccc(F)cn2)C[C@H](C)[C@@]1(O)c1ccc(F)cc1 [Example 34]	0.0392	0.375	< 7	< 8.5		50
C[C@@H]1CN(C(=O)[C@@H]2CN(c3ccc(Cl)nn3)C[C@H]2c2ccc(F)cn2)C[C@H](C)[C@@]1(O)c1ccc(F)cc1 [Example 36]	0.168	1.02	< 7	17		59
C[C@@H]1CN(C(=O)[C@@H]2CN(c3ccc(=O)[nH]n3)C[C@H]2c2ccc(F)cn2)C[C@H](C)[C@@]1(O)c1ccc(F)cc1 [Example 38]	0.102	0.336	< 7	< 8.5		58
COc1ccc([C@@H]2CN(c3ccc(Cl)nn3)C[C@H]2C(=O)N2C[C@@H](C)[C@](O)(c3ccc(F)cc3)[C@@H](C)C2)nc1 [Example 44]	0.284	2.13			> 9.63	27
